These results are taken from US6497872B1, “Neural transplantation using proliferated multipotent neural stem cells and their progeny” (NeuroSpheres Holdings Ltd., priority 1991, dated 2002).

For test [1], the system named is Primary striatal cells. Briefly: Striatum-derived neurosphere proliferation in response to proliferative and regulatory factors (Example 43, Paradigm 1). Type of test: cell-based, mouse. Conditions: for Numbers of neurospheres generated (#): decrease (−) or increase (+) per well compared with absence of the REGULATORY FACTOR: 10-12 days; for numbers of neurospheres generated: in all of the proliferative factors or combinations tested. As for the experimental part: Paradigm 1: Primary striatal cells prepared as outlined in Example 1 were suspended in Complete Medium, without growth factors, plated in 96 well plates (Nunclon) and incubated as described in Example 4. Following a one hour incubation period, a specific proliferative factor, or a combination of proliferative factors including EGF, or bFGF (recombinant human bFGF: R & D Systems), or a combination of EGF and bFGF, or EGF plus FGF plus heparan sulfate (Sigma), or bFGF plus heparan sulfate made up in Complete Medium at a concentration of 20 ng/ml for each of the growth factors and 2 μg/ml for heparan sulfate), was added to each well of the plate.
Retinoic acid (Sigma) was added at a concentration of 10^−6 M. 10 μl of one of these regulatory factor-containing solutions was added to each proliferative factor-containing well of the 96 well plates. Control wells, containing only proliferative factors, were also prepared. […]
IL-2, IL-6, IL-8, MIP-1∂, MIP-1β, MIP-2, TNFα and EGF additions were repeated every second day, CNTF which was added each day and retinoic acid, NGF and PDGF were added only once, at the beginning of the experiment. The cells were incubated for a period of 10-12 days. The number of neurospheres in each well was counted and the resulting counts tabulated using Cricket Graph III. Other relevant information regarding sphere size and shape were also noted.

The test system of test [2] is relatively quiescent neural stem cells in subependyma. Kind of test: 3H-thymidine kill, number of neurospheres formed in vitro (Example 26). Type of test: in vivo, mouse. As for the experimental part:
As detailed in Example 26 below, an experiment was performed to determine whether the in vitro stem cell is derived from the constitutively proliferating population or from the quiescent population. Animals were treated in one of the following ways: […] Adult male CD1 mice were divided into 4 groups. Group A animals received a series of 3H-thymidine injections on day 0 (3 injections, 1 every 4 hours). Animals in groups B and C received a series of 3H-thymidine injections on day 0 followed by a second series of injections on day 2 or 4. Group D animals received injections of physiological saline instead of 3H-thymidine over the same time course as group A. Animals from all groups were sacrificed by cervical dislocation 16-20 hours following the last series of injections. Brains were removed and neural tissue obtained from the subependyma surrounding the lateral ventricles in the forebrain was dissociated and the neural cells cultured as described in Example 5. At 6 and 8 days in vitro, the total number of spheres was counted in each of the 35 mm wells.

The test system of test [3] is constitutively proliferating subependymal cells. Kind of test: 3H-thymidine kill of constitutively proliferating subependymal cells, BrdU count (Example 24). Type of test: in vivo, mouse. Further details: concentration or dose not given beside the values. As for the experimental part: Adult male CD1 mice received a series of intraperitoneal injections of 3H-thymidine (0.8 ml per injection, specific activity 45-55 mCi/mmole, ICN Biomedical) on day 0 (3 injections, 1 every 4 hours) in order to kill the constitutively proliferating subependymal cells. On day 0.5, 1, 2, 4, 6, 8 or 12, animals received 2 BrdU injections 1 hour apart (see Example 25) and were sacrificed 0.5 hour after the last injection. In a second group of animals, 3H-thymidine injections were given on day 0 (3 injections, 1 every 4 hours), followed by an identical series of injections on day 2 or 4. Animals were allowed to survive for 8 days following the second series of injections ([…] and 12 respectively) at which time they received 2 injections of BrdU and were sacrificed 0.5 hours later. Animals were sacrificed and the brains were removed and processed as described in Example 25.

Test [4] deals with EGF-generated neurospheres. Kind of test: Effect of growth factors on neurosphere differentiation, immunocytochemistry (Example 8). Type of test: cell-based, mouse. As for the experimental part:
Six to 8 days after the first passage, the neurospheres were removed and centrifuged at 400 r.p.m. The EGF-containing supernatant was removed and the pellet suspended in EGF-free complete medium containing 1% FBS. Neurospheres (approximately 0.5-1.0×10^6 cells/well) were plated on poly-L-ornithine-coated (15 μg/ml) glass coverslips in 24 well Nuclon (1.0 ml/well) culture dishes. After 24 hours in culture, the coverslips were transferred to 12 well (Costar) culture dishes containing complete medium containing 0.5% FBS. The medium was changed every 4-7 days. This differentiation procedure is referred to as the “Rapid Differentiation Paradigm” or RDP.
Six to 8 days after the first passage, the neurospheres were removed and centrifuged at 400 r.p.m. The EGF-containing media was removed and the pellet was suspended in EGF-free complete medium containing 1% FBS. The neurospheres were mechanically dissociated into single cells with a fire-polished Pasteur pipette and centrifuged at 800 r.p.m. for 5 minutes. Between 0.5×10^6 and 1.0×10^6 cells were plated on poly-L-ornithine-coated (15 μg/ml) glass coverslips in 24 well Nuclon (1.0 ml/well) culture dishes. The EGF-free culture medium containing 1% FBS was changed every 4-7 days.
Neurospheres were washed free of EGF by serial transfers through changes of EGF-free medium. A single neurosphere was plated onto poly-L-ornithine-coated (15 μg/ml) glass coverslips in a 24-well plate. The culture medium used was complete medium with or without I % FBS. The medium was changed every 4-7 days.
Neurospheres were washed free of EGF by serial transfers through changes of EGF-free medium. A single neurosphere was mechanically dissociated in a 0.5 ml Eppendorf centrifuge tube and all the cells were plated onto a 35 mm culture dish. Complete medium was used with or without 1% FBS.
The effects of CNTF, FGF-2, BDNF, and retinoic acid on neurosphere differentiation were tested using the differentiation paradigms set forth in Example 7.
The effect of CNTF was assayed in paradigms 1 and 3. For both paradigms, CNTF was added either at the beginning of the experiment at a concentration of 10 ng/ml or daily at a concentration of 1 ng/ml.
Three different antibodies directed against 04, galactocerebroside (GalC) and MBP were used to study the effect of CNTF on the oligodendrocytes of paradigm 1. CNTF had no effect on the number of 04(+) cells, but there was an increase in the number of GalC(+) and MBP(+) cells compared with the control. Thus it appears that CNTF plays a role in the maturation of oligodendrocytes.
The effect of FGF-2 was tested using paradigms 2 and 4. In paradigm 2, 20 ng/ml of FGF-2 was added at the beginning of the experiment and cells were stained 7 days later. FGF-2 increased the number of GFAP(+) cells and the number of NSE(+) cells.
In paradigm 4, 20 ng/ml of FGF-2 was added at the beginning of the experiment and assayed 7-10 days later. […] It induced two different cell types to divide, neuroblasts and bipotential progenitor cells. The neuroblast produced, on average, 6 neurons while the bipotential cell produced approximately 6 neurons and a number of astrocytes.

Where [5] appears, read: PROLIFERATIVE FACTOR EGF 20 ng/ml.
Where [6] appears, read: PROLIFERATIVE FACTOR bFGF 20 ng/ml.
Setting [7] is: PROLIFERATIVE FACTORS EGF + bFGF.
Setting [8] is: PROLIFERATIVE FACTORS EGF + bFGF + Heparan.
The mark [9] stands for this setting: PROLIFERATIVE FACTORS bFGF + Heparan.
[10] abbreviates: paradigm 1, CNTF 10 ng/ml at beginning or 1 ng/ml daily.

Regarding heparan sulfate [reference compound], the “Numbers of neurospheres generated (#): decrease (−) or increase (+) per well compared with absence of the REGULATORY FACTOR” value in test [1] (setting [5]), in test [1] (setting [6]) and in test [1] (setting [7]) was 0% throughout. Further, the “Size of neurospheres compared to PROLIFERATIVE FACTORS alone” value in test [1] (PROLIFERATIVE FACTOR bFGF) is “++”. In addition, the “increase in size of the neurospheres formed in response to bFGF” value in test [1] (added to bFGF) is “about 400%”. The “size of neurospheres relative to those which occur in response to EGF” value in test [1] (heparan sulfate 2 μg/ml added to bFGF generated spheres) is “approximately 70%”.

Take `CC1=C(/C=C/C(C)=C/C=C/C(C)=C/C(=O)O)C(C)(C)CCC1` [Retinoic Acid, retinoic acid, reference compound]: the “Numbers of neurospheres generated (#): decrease (−) or increase (+) per well compared with absence of the REGULATORY FACTOR” value in test [1] (setting [5]) is recorded as −8%; in test [1] (setting [6]), −61%; in test [1] (setting [8]) it was −45%; in test [1] (setting [7]), −31%; in test [1] (setting [9]), −65%. The “Size of neurospheres compared to PROLIFERATIVE FACTORS alone” value in test [1] (PROLIFERATIVE FACTOR bFGF) is reported as “−”.

Take PDGF: the “Numbers of neurospheres generated (#): decrease (−) or increase (+) per well compared with absence of the REGULATORY FACTOR” value was −1.5% in test [1] (setting [5]); −4% in test [1] (setting [6]); −27% in test [1] (setting [8]); −26% in test [1] (setting [7]); −10% in test [1] (setting [9]). Further, the “numbers of neurospheres generated” value in test [1] is “significantly reduced”.

Take `Cc1cn([C@H]2C[C@H](O)[C@@H](CO)O2)c(=O)[nH]c1=O` [3H-thymidine]: the “Number of Neurospheres produced in vitro relative to control” value in test [2] (high doses on day 0) is “the same number of spheres”; in test [2] (high doses on day 0, listed as radioactive thymidine), 100%; in test [2] (high doses on day 0 and day 2), 45%; in test [2] (high doses on day 0 and day 2, listed as radioactive thymidine), 45%; in test [2] (high doses on day 0 and day 4), “not significantly different from control values”; in test [2] (high doses on day 0 and day 4, listed as radioactive thymidine) it was 85%. Besides, the “proliferating subependymal population relative to controls” value is 85% in test [3] (one kill on day 0, 8 days); “back to control levels” in test [3] (one kill on day 0, 8 days, listed as radioactive thymidine); 10% in test [3] (one kill on day 0, day 1 post-kill); 45% in test [3] (second kill on day 2, 8 days later); 63% in test [3] (second kill on day 2, 31 days after the second kill); “return to control values” in test [3] (second kill on day 4, 8 days later). Besides, the “proliferating subependymal population relative to controls” value in test [3] (second kill on day 4, 8 days later, listed as radioactive thymidine) is reported as 85%.

Regarding TNFα, the “Numbers of neurospheres generated (#): decrease (−) or increase (+) per well compared with absence of the REGULATORY FACTOR” value is −17% in test [1] (setting [5]); −17% in test [1] (setting [6]); −37% in test [1] (setting [8]); −41% in test [1] (setting [7]); −21% in test [1] (setting [9]). Moreover, the “numbers of neurospheres generated” value in test [1] is listed as “significantly reduced”.

B1: CNTF: ciliary neurotrophic factor (protein, UniProt P26441 1-200, looked up)
Ciliary neurotrophic factor: MAFTEHSPLTPHRRDLCSRSIWLARKIRSDLTALTESYVKHQGLNKNINLDSADGMPVASTDQWSELTEAERLQENLQAYRTFHVLLARLLEDQQVHFTPTEGDFHQAIHTLLLQVAAFAYQIEELMILLEYKIPRNEADGMPINVGDGGLFEKKLWGLKVLQELSQWTVRSIHDLRFISSHQTGIPARGSHYIANNKKM
For the molecule B1, the “number of GalC(+) cells compared with control” value in test [4] (paradigm 1) is listed as “increase”. Also, in test [4] (paradigm 1), the “number of MBP(+) cells compared with control” value is “increase”. The “number of O4(+) cells” value in test [4] (paradigm 1) is given as “no effect”. The “number of NSE-immunoreactive cells” value in test [4] (setting [10]) is reported as “increased”. Moreover, in test [4] (setting [10]), the “number of tau-1-immunoreactive cells” value is on record as “increased”. For the same molecule, the “number of cells containing GABA and substance P” value in test [4] (paradigm 1, preliminary testing) is on record as “no increase”. Further, the “proliferation of flat, protoplasmic astrocytes” value in test [4] (paradigm 1 without serum) is listed as “increase”. Further, in test [4] (paradigm 3, CNTF), the “number of NSE(+) cells” value is on record as “increase”. The “Size of neurospheres compared to PROLIFERATIVE FACTORS alone” value in test [1] (PROLIFERATIVE FACTOR EGF) and in test [1] (setting [9]) was “−” each time. For the same molecule, the “Numbers of neurospheres generated (#): decrease (−) or increase (+) per well compared with absence of the REGULATORY FACTOR” value was −23% in test [1] (setting [5]); −77% in test [1] (setting [6]); −84% in test [1] (setting [8]); −81% in test [1] (setting [7]); −81% in test [1] (setting [9]). In test [1], the “numbers of neurospheres generated” value is “significantly reduced”.
